From patent US20260085087A1, “CHEMICAL COMPOUND COMPRISING A TRIAZINE GROUP AND METHOD FOR PRODUCING SAME” (priority 2020, published 2026) come the findings set out here.

The test system of series [1] is HEK293T cells. The series is described as follows: Comparison of cell penetration efficiency of oligonucleotides with lipophilic moieties in various modification backbones. The series is classed as cell-based, human. The conditions noted are these: 4 hours after transfection. The procedure: (§1) Cultured HEK293T and T98G human cells were plated onto the wells of a 24-well microplate in a concentration 20×10^4 cells/well (HEK293T) or 12×10^4 cells/well (T98G) in 500 μl/well IMDM media comprising 10% FBS and 1% solution of antibiotic and antimycotic agents (10 mg/ml streptomycin, 10,000 U/ml penicillin, and 25 mg/ml amphotericin (IMP Biomedicals, Germany) (hereinafter, the complete medium), and incubated for 18 hrs to provide cell attachment. Furthermore, cell medium was replaced with 200 μl/well IMDM medium in the absence of serum and antibiotic agents. Oligonucleotides (OSNF, OSN4F) were dissolved in Opti-MEM and added to the cells until the final concentration of 1 or 5 μM (50 μl/well) was achieved. […] The cells were analyzed on a flow cytometer NovoCyte 3000 (ACEA Biosciences, USA). […] Oligonucleotide penetration efficiency was characterized by two indicators: % of fluorescent cells in a population and average intensity of cell fluorescence in a sample, which were measured using flow cytometry in 4 hours after transfection. Histograms A and C show % of fluorescent cells, histograms B and D show average fluorescence intensity. RFU means relative fluorescence units, LF means Lipofectamine 2000. […]
Cell fluorescence percent (left) and average fluorescence intensity (right) were measured using flow cytometry in 4 hours after transfection. […]

Series [2] relates to HEK293T cells. Description: HEK293T cell transfection efficiency by flow cytofluorometry. The class given is cell-based, human. The conditions noted are these: 4 hours. The procedure: (§2) To study cell penetration efficiency, oligonucleotide 5′-[FAM]-CTGACTATGAAGTAT*T-3′ (OSN4F) was used, wherein * is a position of thiazinylamidophosphate unit carrying two dodecyl moieties, and control unmodified oligonucleotide 5′-[FAM]-CTGACTATGAAGTATT-3′ (OSNF).
as §1, with “Histograms A and C show % of fluorescent cells, histograms B and D show average fluorescence intensity.” left out

The subject of series [3] is HEK293T cells. Description: Confocal microscopy of penetration into human cells. The class given is cell-based. Conditions: 1 μM, 4 hours, no serum. Here is the method:
In this study, oligonucleotide 5′-[FAM]-CTGACTATGAAGTAT*T-3′ (OSN4F) was used, wherein * is a position of triazinylamidophosphate unit having two dodecyl moieties.
Cultured human cells HEK293T were plated on slides placed to the wells of the 24-well microplate, in a concentration of 6×10^4 cells/well in a complete IMDM medium and incubated at 37° C. in 5% CO2 for 12 to 18 hours to provide cell attachment. Then, the medium was replaced to IMDM, in the absence of serum and antibiotic agent, which comprises OSN4F at a concentration of 1 μM. The cells were incubated in the presence of oligonucleotide at 37° C. in 5% CO2 for 4 hours. […]
Intracellular location of oligonucleotide OSN4F was studied using confocal microscope LSM710 (Zeiss, Germany) with the plan-apochromat 63×/1.40 Oil DIC M27 (Zeiss, Germany) lens and two channels, blue and green. Fluorescence in a blue channel at exciting laser wavelength of 405 nm corresponded to NucBlue (cell nuclei staining); green channel at exciting laser wavelength of 488 nm corresponded to fluorescence of oligonucleotide OSN4F labelled with a 6-carboxyfluorescein moiety.

The next series concerns T98G cells. The series is described as follows: T98G cell transfection efficiency by flow cytofluorometry. The class given is cell-based, human. Conditions: 4 hours. The procedure: as §2
as §1, with “Histograms A and C show % of fluorescent cells, histograms B and D show average fluorescence intensity.” left out

[TzD] = triazinylamidophosphate internucleotide linkage carrying two dodecyl amine moieties; {FAM} = fluorescein (FAM) label

As to “5′-[FAM]-CTGACTATGAAGTAT*T-3′ (CTGACTATGAAGTATT; DNA, linkages o14 [TzD]1 (s phosphorothioate, o phosphodiester), 5' {FAM}, methylation of C not given here) [OSN4F, * is a triazinylamidophosphate unit carrying two dodecyl moieties]”, in the series on HEK293T cells [1] (1 μM), the “penetration rate (cell fluorescence percent) relative to PGO, PN, ODF” value is “significantly higher than in other oligonucleotides used”. Besides, in the series on HEK293T cells [1], the “average fluorescence intensity relative to other oligonucleotides” value is listed as “penetrates cells in larger amounts than other oligonucleotides”. Moreover, in the series on HEK293T cells [2] (1 or 5 μM, no additional transfection agent), the “penetration efficiency (number of transfected cells and fluorescence intensity)” value is given as “efficiently penetrates the HEK293T cells”. Also, in the series with HEK293T cells [2] (OSN4F without transfection agent), the “penetration efficiency relative to control OSNF with Lipofectamine 2000” value is given as “comparable”. The intracellular location entry with HEK293T cells [3] is “positioning in the cytoplasm and various cell compartments”. Moreover, the “penetration efficiency relative to control oligonucleotide” value in the series on T98G cells (1 or 5 μM, no additional transfectants) is “penetrates the T98G cells more efficiently than the control oligonucleotide”. For the same substance, the “penetration efficiency in T98G relative to HEK293T cells” value in the series on T98G cells was “reduced relative to the HEK293K kidney cells”.
